From patent US6762186B2, “Substituted imidazoles as dual histamine H1 and H3 agonists or antagonists” (Schering Corporation, priority 2000, dated 2004)

Columns and labels:
H3 receptors = molecular target: T1, H3 receptors (Cavia porcellus, UniProt Q9JI35); assay: H3-Receptor Binding Assay ([3H]R-α-methyl histamine or [3H]Nα-methyl histamine, guinea pig brain membranes); settings: for Ki: HCl salt of the indicated compounds; for inhibition at 2 µg/mL: final concentration 2 μg/ml, HCl salt
T1 construct: The source of the H3 receptors in this experiment was guinea pig brain; from tissue; host or cells: guinea pig brain membranes
Protocol: General Procedure for H3-Receptor Binding Assay
The source of the H3 receptors in this experiment was guinea pig brain. The animals weighed 400-600 g. The brain tissue was homogenized with a solution of 50 mM Tris, pH 7.5. The final concentration of tissue in the homogenization buffer was 10% w/v. The homogenates were centrifuged at 1,000×g for 10 min. in order to remove clumps of tissue and debris. The resulting supernatants were then centrifuged at 50,000×g for 20 min. in order to sediment the membranes, which were next washed three times in homogenization buffer (50,000×g for 20 min. each). The membranes were frozen and stored at −70° C. until needed.
All compounds to be tested were dissolved in DMSO and then diluted into the binding buffer (50 mM Tris, pH 7.5) such that the final concentration was 2 μg/ml with 0.1% DMSO. Membranes were then added (400 μg of protein) to the reaction tubes. The reaction was started by the addition of 3 nM [^3H]R-α-methyl histamine (8.8 Ci/mmol) or 3 nM [^3H]N^α-methyl histamine (80 Ci/mmol) and continued under incubation at 30° C. for 30 min. Bound ligand was separated from unbound ligand by filtration, and the amount of radioactive ligand bound to the membranes was quantitated by liquid scintillation spectrometry. All incubations were performed in duplicate and the standard error was always less than 10%. Compounds that inhibited more than 70% of the specific binding of radioactive ligand to the receptor were serially diluted to determine a Ki (nM). The results are given in Table 1 for the HCl salt of the indicated compounds.

histamine H1 receptor = molecular target: T2, histamine H1 receptor (Rattus norvegicus, UniProt P31390); assay: H1-Receptor Binding Assay ([3H]pyrilamine, rat brain membranes); settings: for Ki: Cheng-Prusoff from IC50, HCl salt; for inhibition at 1 µg/mL: HCl salt
T2 construct: The tissue source was male Sprague-Dawley rat brain; tissue Rockland Corporation, Gilbertsville, Pa; host or cells: male Sprague-Dawley rat brain membranes
Source text: General Procedure for H1-Receptor Binding Assay
The procedure used was based on that disclosed in V. T. Tran et al, “Histamine H1 receptors identified in mammalian brain membranes with [H-3]mepyramine”, Proc. Natl. Acad. Sci. U.S.A. 75 (1978) 6290-6294.
I. Tissue preparation protocol for histamine H1 receptor binding assay:
1. The tissue source was male Sprague-Dawley rat brain. These were purchased stripped and frozen (available from Rockland Corporation, Gilbertsville, Pa.). The buffer used was ice-cold 50 mM Tris-HCl, pH 7.5. (The pH was determined at 25° C.)
2. The brains were spread out on plastic wrap on the benchtop and allowed to thaw for 10-15 min. After this, everything was kept ice-cold.
3. Two brains were put in each 50 ml round bottom centrifuge tube and 25 ml of buffer was added. Then they were broken up with a Polytron (from Brinkmann Instruments, Westbury, N.Y.) equipped with a PT-10 tip at setting 6 for 30 sec.
4. The volume in the tube was brought up to 45 ml and mixed and the particulate material was centrifuged at 1000×g (3000 rpm, SS-34 rotor) for 10 min to remove nuclei and unbroken cells.
5. Pellets were discarded and the supernatants were centrifuged 10 min at 50,000×g (20,000 rpm, SS-34 rotor).
6. The high-speed pellets were resuspended in a volume of Tris buffer equal to the original ([…]), the contents of all tubes were pooled, and a sample was taken for BCA protein assay. The material was aliquotted, 45 ml per round-bottom tube, and the resuspension was recentrifuged. The yield of protein was approximately 20 mg/brain, so there was about 40 mg of protein per tube.
7. Pellets were frozen at −80° C.
II. H1 Histamine receptor binding assay:
1. The compounds for assay were independently solubilized at 1 mg/ml DMSO by vortexing, or if necessary by sonication. The first dilution, 100-fold, was made in 50 mM Tris-HCl, pH 7.5, at room temperature. The three or four subsequent ten-fold serial dilutions were made in 1% DMSO/50 mM Tris-HCl, pH 7.5. Drug solutions and assay plates were kept at room temperature during the course of the assay set up.
2. Test compounds were assayed at four or five concentrations: 1, 0.1, 0.01, 0.001, and 0.0001 μg/ml. Twenty μl of drug solution was pipeted into each of three wells.
3. [^3H]Pyrilamine was diluted approximately 2000-fold with ice-cold […] Tris-HCl, pH 7.5 (to a working concentration of 20-25 nM), and put on ice.
4. A frozen tissue pellet was thawed in a 25° C. water bath, resuspended in 50 mM Tris-HCl, pH 7.5, at 1.7-2 mg/ml by brief break-up on the Polytron, and put on ice.
5. Twenty μl of diluted [^3H]pyrilamine was added to each well.
6. One hundred fifty μl of tissue suspension was added to each well.
7. The top of the plate was covered and it was placed in a 25° C. shaking water bath (about 60 oscillations/min) for 30 min.
8. Samples were filtered on a Tomtec Mach 2 harvester (available from Tomtec Corporation, Orange, Conn.) through a GF/B filter mat (from Wallac, Inc., Gaithersburg, Md.) presoaked in 0.3% polyethylenimine. Each sample was thrice washed with ice-cold 50 mM Tris-HCl, pH 7.5 dried 20 sec on the Tomtec, and dried 3-4 min in a microwave oven on a paper towel. The filter was impregnated with MELTILEX brand wax scintillant (from Wallac Corporation) and counted on a Betaplate scintillation counter (from Wallac Corporation).
9. Specific binding was determined as the difference between total and nonspecific binding. The percent inhibition in the presence of inhibitor or standard was determined using the formula:
[1-(sample binding-nonspecific binding)/specific binding]×100
For compounds that inhibit more than 50% at 1 μg/ml, an IC50 value was interpolated from proximate concentrations. […]

T2 sequence (P31390 whole entry): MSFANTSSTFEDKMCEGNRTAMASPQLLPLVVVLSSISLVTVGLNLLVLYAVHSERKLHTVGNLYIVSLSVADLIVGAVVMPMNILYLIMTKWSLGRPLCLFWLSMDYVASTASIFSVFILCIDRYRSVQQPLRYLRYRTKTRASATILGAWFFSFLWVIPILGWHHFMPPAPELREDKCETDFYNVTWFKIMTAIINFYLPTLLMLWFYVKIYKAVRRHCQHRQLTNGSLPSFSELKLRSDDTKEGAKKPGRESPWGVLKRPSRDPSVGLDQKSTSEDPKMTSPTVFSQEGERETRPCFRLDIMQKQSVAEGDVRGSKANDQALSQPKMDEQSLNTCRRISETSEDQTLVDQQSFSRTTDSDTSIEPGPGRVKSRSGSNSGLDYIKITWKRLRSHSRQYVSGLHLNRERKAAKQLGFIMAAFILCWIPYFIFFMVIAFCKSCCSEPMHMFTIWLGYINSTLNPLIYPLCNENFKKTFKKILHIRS
T1 sequence (Q9JI35 whole entry): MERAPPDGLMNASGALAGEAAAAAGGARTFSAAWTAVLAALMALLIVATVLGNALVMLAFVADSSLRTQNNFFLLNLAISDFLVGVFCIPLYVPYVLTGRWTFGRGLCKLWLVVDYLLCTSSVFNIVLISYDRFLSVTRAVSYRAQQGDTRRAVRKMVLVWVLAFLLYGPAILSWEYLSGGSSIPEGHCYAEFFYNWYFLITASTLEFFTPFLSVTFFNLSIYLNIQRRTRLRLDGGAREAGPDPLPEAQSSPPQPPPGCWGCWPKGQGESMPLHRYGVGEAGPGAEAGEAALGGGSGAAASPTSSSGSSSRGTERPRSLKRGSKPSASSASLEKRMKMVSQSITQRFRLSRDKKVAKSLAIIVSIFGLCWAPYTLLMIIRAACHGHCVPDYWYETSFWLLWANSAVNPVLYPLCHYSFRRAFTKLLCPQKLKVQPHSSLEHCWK

Ki (H3 receptors) [nM]	Ki (histamine H1 receptor) [nM]	inhibition at 1 µg/mL (histamine H1 receptor) [%]	inhibition at 2 µg/mL (H3 receptors) [%]	Structure (SMILES)
73	5	–	–	Clc1ccc(C(c2ccccn2)N2CCN(Cc3c[nH]cn3)CC2)cc1 (stereo not shown)
11	3	–	–	Clc1ccc(C(=C2CCN(CCCCCCc3c[nH]cn3)CC2)c2ccccn2)cc1
25	–	18	–	Clc1ccc(C(CN2CCC(CCc3c[nH]cn3)C2)c2ccc(Cl)cc2)cc1 (stereo not shown)
–	80	–	62	c1ccc(C(CCN2CCN(Cc3c[nH]cn3)CC2)c2ccccc2)cc1
39	5	–	–	Clc1ccc(C(c2ccccn2)N2CCN(CCCCc3c[nH]cn3)CC2)cc1 (stereo not shown)
39	11	–	–	O=C(COCCN1CCN(C(c2ccccc2)c2ccc(Cl)cc2)CC1)NCCCCc1c[nH]cn1 (stereo not shown)
66	40	–	–	Clc1ccc(C(c2ccccn2)N2CCN(CCCc3c[nH]cn3)CC2)cc1 (stereo not shown)
21	18.5	–	–	Clc1ccc(C(c2ccccn2)N2CCN(CCCCCCCNCCCCc3c[nH]cn3)CC2)cc1 (stereo not shown)
130	25	–	–	Clc1ccc(C(CCN2CCN(Cc3c[nH]cn3)CC2)c2ccccn2)cc1 (stereo not shown)
8	4.5	–	–	Clc1ccc(C(=C2CCN(CCCCCc3c[nH]cn3)CC2)c2ccccn2)cc1
9.5	–	2	–	O=C(C(c1ccc(Cl)cc1)c1ccc(Cl)cc1)N1CCC(CCc2c[nH]cn2)C1 (stereo not shown)
101	1.7	–	–	Clc1ccc(C(c2ccccc2)N2CCN(Cc3c[nH]cn3)CC2)cc1 (stereo not shown)
66	50	–	–	O=C(C(c1ccccc1)c1ccccc1)N1CCC(Cc2c[nH]cn2)CC1
3	4.5	–	–	Clc1ccc(C(=C2CCN(CCCCc3c[nH]cn3)CC2)c2ccccn2)cc1
32	–	14	–	O=C(CC(c1ccc(Cl)cc1)c1ccccn1)N1CCN(CCCCc2c[nH]cn2)CC1 (stereo not shown)
0.3	19	–	–	O=C(CC(c1ccc(Cl)cc1)c1ccccn1)N1CCC(Cc2c[nH]cn2)CC1 (stereo not shown)
–	–	–	15	O=C(CC(c1ccccc1)c1ccccc1)N1CCN(Cc2c[nH]cn2)CC1
7	21	–	–	Clc1ccc(C(CCN2CCN(CCCCc3c[nH]cn3)CC2)c2ccccn2)cc1 (stereo not shown)

Structure (SMILES)	Ki (H3 receptors) [nM]	Ki (histamine H1 receptor) [nM]	inhibition at 1 µg/mL (histamine H1 receptor) [%]	inhibition at 2 µg/mL (H3 receptors) [%]
c1ccc(C(c2ccccc2)C2CCN(CCCCCc3c[nH]cn3)CC2)cc1	19	28	–	–
